Several values for one entry are separate records, joined by “and”; a condition that tells them apart may be missing. Equal entries are not always repeated. Where two headings read alike, the source gives them in different places. Positions of bridges follow the written chain, without caps; N, C: chain ends. Residues, ends and D or L forms follow the SMILES beside them.
Key:
rat α9α10 nAChR = biological target: T1, rat α9α10 nAChR (Rattus norvegicus, UniProt P43144+Q9JLB5); test: cell-based; settings: for IC50: 500 μM ACh, X. laevis oocytes
T1 construct: expressed in transfected cells; host or cells: Xenopus laevis oocytes injected with cRNA
T1 sequence (P43144 26-479): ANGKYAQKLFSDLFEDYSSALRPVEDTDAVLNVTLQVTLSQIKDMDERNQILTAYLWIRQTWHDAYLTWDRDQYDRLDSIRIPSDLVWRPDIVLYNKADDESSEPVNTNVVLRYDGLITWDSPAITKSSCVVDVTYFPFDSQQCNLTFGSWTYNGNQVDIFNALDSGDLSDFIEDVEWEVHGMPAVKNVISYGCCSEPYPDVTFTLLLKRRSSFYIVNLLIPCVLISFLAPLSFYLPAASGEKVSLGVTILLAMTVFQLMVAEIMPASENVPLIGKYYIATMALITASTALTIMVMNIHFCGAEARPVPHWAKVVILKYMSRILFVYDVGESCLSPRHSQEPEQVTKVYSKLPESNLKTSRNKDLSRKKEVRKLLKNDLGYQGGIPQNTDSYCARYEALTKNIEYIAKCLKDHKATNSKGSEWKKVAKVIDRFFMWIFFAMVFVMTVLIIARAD
T1 sequence (Q9JLB5 25-447): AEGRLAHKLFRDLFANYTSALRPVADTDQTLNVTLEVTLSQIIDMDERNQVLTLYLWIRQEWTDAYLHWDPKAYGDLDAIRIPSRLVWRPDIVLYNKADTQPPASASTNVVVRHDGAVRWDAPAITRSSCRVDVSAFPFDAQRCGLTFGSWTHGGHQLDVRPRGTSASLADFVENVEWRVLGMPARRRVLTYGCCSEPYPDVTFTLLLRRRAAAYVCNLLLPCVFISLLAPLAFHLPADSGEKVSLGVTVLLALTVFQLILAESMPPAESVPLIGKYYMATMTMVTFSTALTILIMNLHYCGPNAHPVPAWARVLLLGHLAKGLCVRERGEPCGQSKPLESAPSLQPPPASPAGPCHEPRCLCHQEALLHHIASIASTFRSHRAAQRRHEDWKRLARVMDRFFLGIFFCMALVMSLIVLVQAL

human α7 nAChR = biological target: T2, human α7 nAChR (Homo sapiens, UniProt P36544); test: cell-based; settings: for inhibition at 500 µM: read-out: Inhibition of PNU282987-evoked response
T2 construct: α7 nAChR endogenously expressed in neuroblastoma SH-SY5Y cells; endogenous in cells; host or cells: SH-SY5Y human neuroblastoma cells
T2 sequence (P36544 23-502): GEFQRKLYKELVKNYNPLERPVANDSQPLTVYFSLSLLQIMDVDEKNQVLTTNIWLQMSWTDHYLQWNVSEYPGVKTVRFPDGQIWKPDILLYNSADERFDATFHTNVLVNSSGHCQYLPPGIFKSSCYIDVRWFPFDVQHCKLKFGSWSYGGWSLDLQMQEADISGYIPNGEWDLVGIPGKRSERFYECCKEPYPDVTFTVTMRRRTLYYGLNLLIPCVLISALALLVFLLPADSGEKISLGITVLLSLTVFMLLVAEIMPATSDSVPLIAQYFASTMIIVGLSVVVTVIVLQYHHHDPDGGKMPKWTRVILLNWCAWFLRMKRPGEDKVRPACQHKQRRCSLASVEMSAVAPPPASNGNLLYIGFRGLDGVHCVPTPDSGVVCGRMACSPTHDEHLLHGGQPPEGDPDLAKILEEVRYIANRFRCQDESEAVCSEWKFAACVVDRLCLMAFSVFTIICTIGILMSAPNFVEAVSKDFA

human α9α10 nAChR [1] = biological target: T3, human α9α10 nAChR (Homo sapiens, UniProt Q9GZZ6+Q9UGM1); design: method as in Lebedev et al., 2019; settings: read-out: IC50 on α9α10 nAChR; 95% CI in brackets; ref Lebedev et al., 2019; cited from earlier work
T3 construct: expressed in transfected cells; host or cells: Xenopus laevis oocytes injected with cRNA
T3 sequence (Q9UGM1 26-479 limits assumed): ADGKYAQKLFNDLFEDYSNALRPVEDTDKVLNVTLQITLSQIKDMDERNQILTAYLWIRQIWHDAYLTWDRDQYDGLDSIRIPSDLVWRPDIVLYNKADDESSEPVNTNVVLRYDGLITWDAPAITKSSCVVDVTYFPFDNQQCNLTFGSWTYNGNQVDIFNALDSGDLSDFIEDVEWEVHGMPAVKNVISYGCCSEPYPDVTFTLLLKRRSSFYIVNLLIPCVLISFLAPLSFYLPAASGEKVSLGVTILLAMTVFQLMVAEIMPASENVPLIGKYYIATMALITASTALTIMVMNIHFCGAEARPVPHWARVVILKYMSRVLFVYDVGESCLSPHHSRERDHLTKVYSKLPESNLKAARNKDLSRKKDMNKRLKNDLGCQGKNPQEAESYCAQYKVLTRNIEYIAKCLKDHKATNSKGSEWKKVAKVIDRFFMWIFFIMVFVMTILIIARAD
T3 sequence (Q9GZZ6 25-450): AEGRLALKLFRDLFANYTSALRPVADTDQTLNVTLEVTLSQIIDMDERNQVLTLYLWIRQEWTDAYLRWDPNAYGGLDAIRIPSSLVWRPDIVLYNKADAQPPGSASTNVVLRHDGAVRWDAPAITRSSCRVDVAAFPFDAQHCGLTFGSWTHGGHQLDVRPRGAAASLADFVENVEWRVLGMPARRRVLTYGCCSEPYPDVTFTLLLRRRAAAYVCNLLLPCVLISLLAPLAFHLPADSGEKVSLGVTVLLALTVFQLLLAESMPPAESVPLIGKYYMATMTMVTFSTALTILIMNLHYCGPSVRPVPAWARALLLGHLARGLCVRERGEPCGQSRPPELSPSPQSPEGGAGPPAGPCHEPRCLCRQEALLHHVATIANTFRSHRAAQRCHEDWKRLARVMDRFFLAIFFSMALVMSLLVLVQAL

human α9α10 nAChR [2] = biological target: T3, human α9α10 nAChR; test: Two-electrode voltage clamp, human α9α10 nAChR in X. laevis oocytes; type: cell-based; settings: IC50, inhibition of ACh-evoked currents (α9α10 nAChR), 500 μM ACh, mean ± SEM
SH-SY5Y cells = test: Calcium imaging, effect of compound alone on [Ca2+]i in SH-SY5Y cells; type: cell-based, human; settings: 10 μM, without α7 nAChR activation

For `NCCCNCCCCNCCCN` [Spm, spermine], the “Inhibition of rat α9α10 nAChR at 500 μM” value (rat α9α10 nAChR) was “no inhibition” and the inhibition at 500 µM (human α7 nAChR; SH-SY5Y) was ~20%.
For `N=C(N)NCCC[C@H](NC(=O)[C@H](CCCNC(=N)N)NC(=O)[C@H](CCCNC(=N)N)NC(=O)[C@H](CCCNC(=N)N)NC(=O)[C@H](CCCNC(=N)N)NC(=O)[C@H](CCCNC(=N)N)NC(=O)[C@H](CCCNC(=N)N)NC(=O)[C@@H](N)CCCNC(=N)N)C(=O)O` [R8, octa-arginine], the IC50 (human α9α10 nAChR [1]) is given as 0.044 µM and the IC50 (human α7 nAChR) is given as 0.0145 ± 0.001 µM.
For `N=C(N)NCCC[C@@H]1NC(=O)[C@H](CCCNC(=N)N)NC(=O)[C@H](CCCNC(=N)N)NC(=O)[C@H](CCCNC(=N)N)NC(=O)[C@H](CCCNC(=N)N)NC(=O)[C@H](CCCNC(=N)N)NC(=O)[C@H](CCCNC(=N)N)NC(=O)[C@H](CCCNC(=N)N)NC(=O)[C@@H](N)CSSC[C@@H](C(=O)O)NC1=O` [“cyclo”R8] (H-CRRRRRRRRC-OH; disulfide 1-10), the IC50 (human α9α10 nAChR [2]) was ~0.06 µM and 0.0618 µM and the IC50 (human α7 nAChR) was 0.0133 ± 0.003 µM.
Compound `NCCCCN=C(N)N` [Agm, agmatine] has an inhibition at 500 µM (human α7 nAChR; SH-SY5Y) of ~20%.
With α-cobratoxin [CTX] the “Suppression of α7 nAChR activity” value (human α7 nAChR; compound 5 μM, 200 nM PNU282987, SH-SY5Y cells) was “completely suppressed”.
Work on `CC(CN)CNCCCCNCC(C)CN` (racemic) [rac-2,11-Me2Spm] yielded an IC50 (rat α9α10 nAChR; read-out: IC50, inhibition of rat α9α10 nAChR) of ~500 µM.
For `N=C(N)NCCC[C@H](N)C(=O)NCCCNCCCNCCCCCNC(=O)[C@H](CC(N)=O)NC(=O)Cc1ccc(O)cc1O` [AgTx-636, argiotoxin-636], the IC50 (rat α9α10 nAChR; IC50, inhibition of ACh-evoked currents (rat α9α10 nAChR)) was ~0.2 µM and 0.22 µM, the “[Ca2+]i change caused by the compound alone” value (SH-SY5Y cells) was “noticeable [Ca^2+]i increase” and the inhibition at 10 µM (human α7 nAChR; SH-SY5Y, read-out: Inhibition of the action of α7 nAChR agonist PNU282987) was ≥ 70%.

Source: article PMC10758494 (Frontiers in Pharmacology, 2023)
